We go through 8 molecules from article PMC10539329, “NLRP6 potentiates PI3K/AKT signalling by promoting autophagic degradation of p85α to drive tumorigenesis” (Nature Communications, 2023).

Peptide text beside a SMILES is read from it.

One assay relates to p85α in LN229 cells. As to the kind of experiment: NLRP6-induced p85α degradation with pathway inhibitors, immunoblot, LN229. Particulars: LN229 cells transfected with Flag-NLRP6, immunoblot. It is filed as cell-based, Human. The procedure:
(§1) For coimmunoprecipitation, cell lysate was collected and incubated with the indicated antibody at 4 °C overnight followed by incubation with Protein A/G beads (Pierce, IL, USA) at 4 °C for 2 h. The unbound proteins were washed away with lysis buffer. The precipitated proteins were separated from the beads. To detect protein expression in frozen tissues or cells, total protein was extracted using RIPA lysis buffer (Beyotime, Shanghai, China) supplemented with protease and phosphatase inhibitors (Beyotime, Shanghai, China). The protein concentration was determined using a BCA protein quantification kit (Beyotime, Shanghai, China) or BCA Protein Assay Kit (BEB, Nanjing, China). The proteins were separated by SDS–PAGE, transferred to polyvinylidene fluoride (PVDF) membranes (Bio–Rad, CA, USA), and incubated with the indicated antibodies. The bands were detected with the ECL Advanced Western blot Detection Kit (Thermo Fisher Scientific, MA, USA) or Super ECL Chemiluminescent Substrate Kit (BEB, Nanjing, China) on a ChemiDoc Touch System (Bio–Rad, CA, USA) or Tanon 4600 (Tanon, Shanghai, China). The band intensities were quantified using Image Lab software (Bio–Rad, CA, USA) or ImageJ software (National Institutes of Health, MD, USA).
Background: In western blotting, separated proteins are transferred to a membrane and probed.

The subject of a further assay is AKT. The conditions noted are these: cited from earlier work. The procedure: To investigate whether NLRs could regulate PI3K/AKT pathway, the FOXO luciferase reporter assay was performed to detect the transcriptional activity of FOXO, which is one of the best characterized targets of PI3K/AKT pathway. Two independent oligonucleotides targeting each of 22 human NLRs were mixed and transfected into LN229 cells. The nontargeting oligonucleotides served as a negative control. The knockdown efficiency targeting each NLR was confirmed by qRT-PCR (Supplementary Fig. 1a). […] Thus, interrupting the interaction between NLRP6 and p85α appears to be an attractive strategy to inhibit tumour growth. α-Helices are the fundamental recognition elements in protein-protein interactions and may serve as ideal inhibitors of macromolecular interactions. According to the observations that the SR domain (amino acids 1–301) on p85α interacted with the NOD domain (amino acids 1 ...

Assay [1] relates to PI3K/AKT pathway. As to the kind of experiment: PI3K/AKT activation by NLRP6 overexpression with MK-2206. The class given is cell-based. The method, then:
as §1

In a further assay the target is T1, recombinant NLRP6 (Homo sapiens, UniProt P59044).
T1 construct: DNA encoding full-length NLRP6 was codon optimized; His (N); MBP (N); made in house; host or cells: E. coli (DE3)
T1 sequence (P59044 1-892): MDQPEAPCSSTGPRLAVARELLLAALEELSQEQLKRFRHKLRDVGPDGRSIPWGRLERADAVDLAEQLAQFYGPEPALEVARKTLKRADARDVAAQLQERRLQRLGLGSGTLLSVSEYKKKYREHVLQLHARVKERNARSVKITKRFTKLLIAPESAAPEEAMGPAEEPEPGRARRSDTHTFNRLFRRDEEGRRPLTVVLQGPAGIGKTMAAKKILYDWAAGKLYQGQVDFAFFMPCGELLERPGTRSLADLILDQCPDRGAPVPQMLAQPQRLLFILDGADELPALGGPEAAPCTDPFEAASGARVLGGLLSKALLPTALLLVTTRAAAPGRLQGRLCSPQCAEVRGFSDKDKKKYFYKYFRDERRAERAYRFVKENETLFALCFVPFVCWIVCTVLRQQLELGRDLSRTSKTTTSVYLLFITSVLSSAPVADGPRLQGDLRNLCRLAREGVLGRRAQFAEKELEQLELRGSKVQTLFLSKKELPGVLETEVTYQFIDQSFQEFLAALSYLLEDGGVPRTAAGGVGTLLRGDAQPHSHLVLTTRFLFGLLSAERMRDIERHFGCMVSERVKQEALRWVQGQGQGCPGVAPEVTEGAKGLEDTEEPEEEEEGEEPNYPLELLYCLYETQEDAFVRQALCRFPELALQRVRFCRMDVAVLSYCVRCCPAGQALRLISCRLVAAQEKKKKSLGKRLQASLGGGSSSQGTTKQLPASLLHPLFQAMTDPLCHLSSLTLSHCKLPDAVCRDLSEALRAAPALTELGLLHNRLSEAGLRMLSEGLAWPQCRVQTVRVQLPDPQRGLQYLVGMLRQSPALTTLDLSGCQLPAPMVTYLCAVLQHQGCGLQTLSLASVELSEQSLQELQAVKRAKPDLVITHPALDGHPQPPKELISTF
As to the kind of experiment: Biolayer interferometry (BLI) binding of peptides to recombinant NLRP6. The conditions noted are these: Octet Red 96, biotin-NLRP6 on streptavidin biosensors, 30 °C, PBS with 0.01% Tween-20, global 1:1 fitting, printed in picture Fig. 6b, representative of three independent experiments. The method, then: DNA encoding full-length NLRP6 was codon optimized and chemically synthesized by Genewiz (Soochow, China). The DNA sequence was subcloned into NdeI-XhoI sites of a pDB-His-MBP vector (kindly given by Pro. Chenggui Han, China Agricultural University, Beijing, China). Recombinant NLRP6 protein was expressed and purified following previous reports, with slight modifications. Briefly, the protein was expressed in E. coli (DE3) at 16 °C with 0.5 mM IPTG induction overnight. Then, the protein was purified by Ni affinity and gel filtration chromatography. The p85α WT and p85α mutant sequences were chemically synthesized and subcloned into BamHI-XhoI sites of a pGEX-6P-1 plasmid by GenScript (Nanjing, China). The E. coli (DE3) transformed with the plasmids were grown in LB medium at 37 °C. The culture medium was supplemented with 0.5 mM IPTG followed by incubation at 16 °C for 16–18 h. […] The protein extinction coefficient was calculated by ProtParam, and the protein concentration was determined by the ultraviolet spectrophotometry method.
Eleven α-helical peptides were synthesized (Supplementary Data 7). […] The interaction between the peptides and NLRP6 was determined by BLI using an Octet Red 96 instrument (FortéBio, CA, USA). […] Responses (nanometre shift) were calculated using data that were double reference subtracted using reference wells and nonspecific binding of the biosensor to the analyte. […]
(Biolayer interferometry detects binding as a change in optical thickness at a sensor tip.)

Assay [2] deals with PI3K/AKT pathway. In words: Immunoblot of PI3K/AKT pathway with Pep9 and SC-79. It is filed as cell-based. The method, then: as §1
The next assay relates to purified NLRP6. As to the kind of experiment: ELISA, binding of HRP-conjugated peptide to purified NLRP6. The conditions noted are these: ELISA, 1 h. The method, then: DNA encoding full-length NLRP6 was codon optimized and chemically synthesized by Genewiz (Soochow, China). The DNA sequence was subcloned into NdeI-XhoI sites of a pDB-His-MBP vector (kindly given by Pro. Chenggui Han, China Agricultural University, Beijing, China). Recombinant NLRP6 protein was expressed and purified following previous reports, with slight modifications. Briefly, the protein was expressed in E. coli (DE3) at 16 °C with 0.5 mM IPTG induction overnight. Then, the protein was purified by Ni affinity and gel filtration chromatography. The p85α WT and p85α mutant sequences were chemically synthesized and subcloned into BamHI-XhoI sites of a pGEX-6P-1 plasmid by GenScript (Nanjing, China). The E. coli (DE3) transformed with the plasmids were grown in LB medium at 37 °C. The culture medium was supplemented with 0.5 mM IPTG followed by incubation at 16 °C for 16–18 h. The proteins were purified by glutathione-affinity chromatography (Smart-Life Sciences, Changzhou, China) followed by gel filtration chromatography (Cytiva, MA, USA) using PBS. The protein extinction coefficient was calculated by ProtParam, and the protein concentration was determined by the ultraviolet spectrophotometry method.
The 96-well plate was coated with bovine serum albumin (BSA) or purified NLRP6. HRP-conjugated PepC or HRP-conjugated Pep9 was incubated with BSA or NLRP6 for 1 h, and the unbound peptide was washed away. The HRP substrate was added, and the absorbance was detected at 450 nm. For the competitive ELISA, the 96-well plate was coated with purified p85α. The binding of NLRP6 to p85α competed with 10 μM PepC or 5 μM, 10 μM, 20 μM Pep9 for 1 h.
On the technique in general: An ELISA detects its analyte on a solid surface through an enzyme-linked reagent.

The term Kd denotes a measure of binding affinity in units of concentration.

As for `Cn1cnc(N)c2ncnc1-2` [3-methyladenine (3-MA), 3-methyladenine], the “NLRP6-induced p85α degradation (in words)” value in the assay with p85α in LN229 cells is “attenuated NLRP6-induced p85α degradation”.

For the molecule `NC1(c2ccc(-c3nc4ccn5c(=O)[nH]nc5c4cc3-c3ccccc3)cc2)CCC1` [MK-2206], the “AKT inhibition (in words)” value with AKT is “highly potent and selective allosteric AKT inhibitor”. In the assay with PI3K/AKT pathway [1], the “PI3K/AKT activation by NLRP6 overexpression (in words)” value is on record as “NLRP6 overexpression could not activate PI3K/AKT pathway anymore when MK-2206 was introduced”.

With `Cl.N` [NH4Cl], the “NLRP6-induced p85α degradation (in words)” value in the assay on p85α in LN229 cells was “attenuated NLRP6-induced p85α degradation”.

Turning to `CC(C)C[C@H](NC(=O)[C@H](CC(N)=O)NC(=O)[C@H](CCCCN)NC(=O)[C@H](CO)NC(=O)[C@H](CO)NC(=O)[C@@H](NC(=O)[C@H](CCC(N)=O)NC(=O)[C@H](CO)NC(=O)[C@H](CC(C)C)NC(=O)[C@H](CCCCN)NC(=O)[C@H](Cc1ccccc1)NC(=O)[C@H](Cc1ccccc1)NC(=O)[C@H](Cc1c[nH]cn1)NC(=O)[C@H](CCCCN)NC(=O)[C@H](CC(C)C)NC(=O)[C@H](CC(C)C)NC(=O)[C@H](Cc1ccc(O)cc1)NC(=O)[C@H](CCC(N)=O)NC(=O)[C@H](CC(C)C)NC(=O)[C@@H](NC(=O)[C@H](CC(C)C)NC(=O)[C@H](Cc1c[nH]c2ccccc12)NC(=O)[C@H](Cc1ccc(O)cc1)NC(=O)[C@H](CCC(N)=O)NC(=O)[C@H](Cc1c[nH]cn1)NC(=O)[C@@H]1CCCN1)[C@@H](C)O)[C@@H](C)O)C(=O)O` [Pep9] (H-PHQYWLTLQYLLKHFFKLSQTSSKNL-OH), the equilibrium dissociation constant (Kd) at recombinant NLRP6 came to 9 µM.

On to `CCOC(=O)C1=C(N)Oc2ccc(Cl)cc2C1C(C#N)C(=O)OCC` (stereo not shown) [SC-79], for which the “AKT binding and activation (in words)” value in the assay with AKT (cytosol) was “specifically binds to the PH domain of AKT and activates AKT in the cytosol”. In the assay with PI3K/AKT pathway [2], the “effect of SC-79 on Pep9 inhibition of PI3K/AKT pathway (in words)” value is on record as “The inhibition of Pep9 on PI3K/AKT pathway was reversed when SC79 was added”.

Consider `CO/C1=C\C(C)=C\[C@@H](C)[C@@H](O)[C@@H](C)C/C(C)=C/C=C/[C@H](OC)[C@@H]([C@@H](C)[C@@H](O)[C@H](C)[C@@]2(O)C[C@@H](O)[C@H](C)[C@@H](C(C)C)O2)OC1=O` [bafilomycin A1 (BafA1), bafilomycin A1], for which the “NLRP6-induced p85α degradation (in words)” value in the assay on p85α in LN229 cells is “attenuated NLRP6-induced p85α degradation”.

`CCN(CC)CCCC(C)Nc1ccnc2cc(Cl)ccc12` (stereo not shown) [chloroquine (CQ), chloroquine]: in the assay with p85α in LN229 cells, the “NLRP6-induced p85α degradation (in words)” value is “attenuated NLRP6-induced p85α degradation”.

B1: HRP-conjugated Pep9: Horseradish peroxidase (HRP)-conjugated Pep9 (conjugate)
peptide: EADVEQQALTLPDLAEQFAPPDIAPPLLIKLVEAIEKKGLECSTLYRTQSSSNLAELRQLLDCDTPSVDLEMIDVHVLADAFKRYLLDLPNPVIPAAVYSEMISLAPEVQSSEEYIQLLKKLIRSPSIPHQYWLTLQYLLKHFFKLSQTSSKNLLNARVLSEIFSPMLFRFSAASSDNTENLIKVIEILISTEWNERQPAPALPPKPPKPTTVAN
modifications: left off: HRP, end not stated, kept
In the case of B1, the “binding of HRP-conjugated peptide to NLRP6 (in words)” value in the assay with purified NLRP6 is “could bind to NLRP6”.
